Assay results: article PMC10313921, “A living ex vivo platform for functional, personalized brain cancer diagnosis” (Cell Reports Medicine, 2023)

How the values were obtained:
Assay type in all cases: cell-based, human
[1] = tested on: PDIPG (low-passage pediatric patient-derived line); test: Drug screening of PDIPG tumor foci on OBSCs; details: PDIPG on OBSCs
Protocol: (§1) Tumor cells (0.17 μL, 25,000 cells) were seeded onto OBSCs 2h after slicing, with one tumor seeded in the center of each hemisphere for a total of two tumor foci per OBSC. BSM was changed 24h after slicing. Fluorescence images were taken 0 h, 24 h, and 96 h post-seeding for normalization of tumor size. Bioluminescence readouts were also taken at 0 h, 24 h, and 96 h post seeding for assessment of cell viability. Luciferin was added underneath the culture insert and allowed to incubate for 10 min before bioluminescence measurement on an AMI optical imaging system.
(§2) Tumor cells were seeded onto OBSCs 2h after slicing as described above. One day after tumor seeding, six concentrations of each drug were diluted in the media underneath each culture insert, or XRad was applied using an X-Rad 320 Precision X-ray machine (n = 4 tumor foci per concentration; n ≥ 24 tumor foci per drug per cell line). Three days after treatment, the bioluminescence of live tumor cells was measured using an AMI optical imager (Spectral Instruments) and dose-response curves were generated. Tumor survival was normalized to day one tumor fluorescence and compared to an untreated control group.
(§3) Several weighted parameters were factored into an overall drug sensitivity score.
(§4) For DSS parameters 1–6, therapeutic windows were calculated by comparing OBSC toxicity and tumor response at the doses where tumor kill passed through the DSS parameter (Table S1 and S3). For DSS parameter 7, the therapeutic window was calculated by comparing the slopes through the tumor EC50 and the OBSC tox EC50. For DSS parameter 8, the therapeutic window was calculated by comparing the areas under tumor kill and OBSC tox curves. Normalized therapeutic window ratios for DSS parameters 1–8 within each drug-tumor-OBSC interaction were calculated in the following manner: within each window, values ranged from +1 to −1, where values approaching +1 signify increasing tumor kill relative to normal tissue toxicity, and values approaching −1 indicate agents where tumors remained highly viable while toxicity to the normal OBSC tissue was elevated. DSS parameters 9–11 were determined based on the behavior of the tumor in response to the drug, as defined above.
(§5) All individually weighed parameters were added together to generate the DSS. Overall DSS from 0 to 100 signify increasing efficacy in tumor kill relative to OBSC toxicity, while scores from 0 to −100 describe scenarios in which tumors thrive more effectively than OBSCs for a given treatment. Dose-response values were calculated via linear interpolation of raw data, not from best-fit curve equations.

[2] = tested on: GBM8 (high-passage patient-derived GBM line); test: Drug screening of GBM8 tumor foci on OBSCs; details: GBM8 on OBSCs
Protocol: as §1, §2, §3, §4, §5

[3] = tested on: LN229 (established GBM line); test: Drug screening of LN229 tumor foci on OBSCs
Protocol: as §1, §2, §3, §4, §5

[4] = tested on: U373WT (wild-type established GBM line); test: Drug screening of U373WT tumor foci on OBSCs
Protocol: as §1, §2, §3, §4, §5

[5] = tested on: 7 cell lines (MB231Br, LN229, U373WT, U373KO, GBM8, MS21, PDIPG); test: Drug screening on OBSCs, summary over the panel of seven tumor lines; details: number of lines responding
Protocol: as §1, §2, §3, §4, §5

[6] = tested on: MS21 (low-passage patient-derived GBM line); test: Drug screening of MS21 tumor foci on OBSCs; details: MS21 on OBSCs
Protocol: as §1, §2, §3, §4, §5

[7] = tested on: MB231Br (breast cancer metastasis to brain); test: Drug screening of MB231Br tumor foci on OBSCs; details: MB231BR on OBSCs
[8] = tested on: U373KO (RAD18 knockout of U373WT via CRISPR); test: Drug screening of U373KO tumor foci on OBSCs; details: U373 KO on OBSCs
Protocol: as §1, §2, §3, §4, §5

[9] = area under the dose-response curve, trapezoidal rule
[10] = dose required to kill 10% of the tumor
[11] = dose required to kill 25% of the tumor
[12] = dose required to kill 50% of the tumor, read-out: EC50
[13] = dose required to kill 75% of the tumor
[14] = dose required to kill 90% of the tumor, read-out: EC90
[15] = dose required to kill 50% of the tumor
[16] = dose required to kill 90% of the tumor

## N.N.[Cl][Pt][Cl] [Cisplatin]
[1]
  Killing at highest dose: 1.00E+00 fraction of tumor population killed
[1]; [9]
  AUC: 4.87E+00
[1]; [10]
  EC10: 3.17 µM
[1]; [11]
  EC25: 7.94 µM
[1]; [12]
  EC50: 16.8 µM
[1]; [13]
  EC75: 27.3 µM
[1]; [14]
  EC90: 41.5 µM
[1]; slope through the EC50
  Slope: -2.73E-02
[2]
  Killing at highest dose: 1.00E+00 fraction of tumor population killed
[2]; [9]
  AUC: 1.76E-01
[2]; [10]
  EC10: 0.0906 µM
[2]; [11]
  EC25: 0.226 µM
[2]; [12]
  EC50: 0.453 µM
[2]; [13]
  EC75: 2.74 µM
[2]; [14]
  EC90: 4.2 µM
[2]; slope through the EC50
  Slope: -1.10E+00
[3]
  Killing at highest dose: 1.00E+00 fraction of tumor population killed
[3]; [9]
  AUC: 7.69E+01
[3]; [10]
  EC10: 74.6 µM
[3]; [11]
  EC25: 81.3 µM
[3]; [15]
  EC50: 92.4 µM
[3]; [13]
  EC75: 136 µM
[3]; [16]
  EC90: 205 µM
[3]; slope through the EC50
  Slope: -2.20E-03
[4]; U373 WT on OBSCs
  Killing at highest dose: 1.00E+00 fraction of tumor population killed
[4]; U373 WT on OBSCs, area under the dose-response curve, trapezoidal rule
  AUC: 1.33E+01
[4]; U373 WT on OBSCs, dose required to kill 10% of the tumor
  EC10: 20.3 µM
[4]; U373 WT on OBSCs, dose required to kill 25% of the tumor
  EC25: 28.4 µM
[4]; U373 WT on OBSCs, dose required to kill 50% of the tumor
  EC50: 41.9 µM
[4]; U373 WT on OBSCs, dose required to kill 75% of the tumor
  EC75: 65.2 µM
[4]; U373 WT on OBSCs, dose required to kill 90% of the tumor
  EC90: 87.9 µM
[4]; U373 WT on OBSCs, slope through the EC50
  Slope: -1.85E-02
[4]; U373 WT, scale -100 to +100, tumor kill relative to OBSC toxicity
  DSS (drug sensitivity score): 62
[5]
  response / killing over the 7 cell lines: robust response
[6]
  Killing at highest dose: 9.99E-01 fraction of tumor population killed
[6]; [9]
  AUC: 4.20E+00
[6]; [10]
  EC10: 4.55 µM
[6]; [11]
  EC25: 11.6 µM
[6]; [12]
  EC50: 24.7 µM
[6]; [13]
  EC75: 37.9 µM
[6]; [14]
  EC90: 45.7 µM
[6]; slope through the EC50
  Slope: -1.90E-02
[7]
  Killing at highest dose: 1.00E+00 fraction of tumor population killed
[7]; [9]
  AUC: 6.20E+01
[7]; [10]
  EC10: 74.1 µM
[7]; [11]
  EC25: 87.1 µM
[7]; [15]
  EC50: 125 µM
[7]; [13]
  EC75: 188 µM
[7]; [16]
  EC90: 225 µM
[7]; slope through the EC50
  Slope: -4.00E-03
[8]
  Killing at highest dose: 1.00E+00 fraction of tumor population killed
[8]; [9]
  AUC: 1.56E+01
[8]; [10]
  EC10: 33.2 µM
[8]; [11]
  EC25: 36.5 µM
[8]; [15]
  EC50: 42 µM
[8]; [13]
  EC75: 47.6 µM
[8]; [16]
  EC90: 114 µM
[8]; slope through the EC50
  Slope: -4.53E-02
